Measured values: the NIST ThermoML archive (doi:10.1021/je1003065)

Test: mn = molality of the nth substance listed, in mol/kg
Conditions: Liquid, Vibrating tube method

[Br-].[Li+] [lithium bromide] + CCO
Conditions | mass density [kg/m3]
293.15 K, 1024 kPa, m1 = 2.833 | 956.08
293.15 K, 1034 kPa, m1 = 0.9499 | 850.27
293.15 K, 5015 kPa, m1 = 3.368 | 986.33
293.15 K, 5029 kPa, m1 = 0.9499 | 853.2
293.15 K, 5201 kPa, m1 = 2.833 | 959.11
293.15 K, 10003 kPa, m1 = 0.2335 | 812.89
293.15 K, 10032 kPa, m1 = 2.833 | 962.5
293.15 K, 10041 kPa, m1 = 0.9499 | 856.81
293.15 K, 10061 kPa, m1 = 0.5972 | 835.46
293.15 K, 19924 kPa, m1 = 0.9499 | 863.69
293.15 K, 20003 kPa, m1 = 0.2335 | 820.16
293.15 K, 20038 kPa, m1 = 3.368 | 996.51
293.15 K, 29895 kPa, m1 = 0.9499 | 870.31
293.15 K, 29978 kPa, m1 = 3.368 | 1002.69
293.15 K, 29993 kPa, m1 = 0.5972 | 849.31
293.15 K, 39912 kPa, m1 = 0.5972 | 855.69
293.15 K, 39956 kPa, m1 = 0.2335 | 833.59
293.15 K, 39985 kPa, m1 = 2.833 | 981.35
293.15 K, 40003 kPa, m1 = 0.9499 | 876.7
293.15 K, 49936 kPa, m1 = 3.368 | 1014.01
293.15 K, 49993 kPa, m1 = 0.5972 | 861.83
293.15 K, 50002 kPa, m1 = 0.9499 | 882.7
293.15 K, 59924 kPa, m1 = 0.2335 | 845.57
293.15 K, 60001 kPa, m1 = 2.833 | 992.24
293.15 K, 60032 kPa, m1 = 0.9499 | 888.39
293.15 K, 70032 kPa, m1 = 2.833 | 997.31
293.15 K, 70102 kPa, m1 = 0.9499 | 893.78
293.15 K, 79914 kPa, m1 = 1.462 | 928.13
293.15 K, 79926 kPa, m1 = 0.2335 | 856.13
293.15 K, 79956 kPa, m1 = 0.9499 | 898.74
293.15 K, 79956 kPa, m1 = 2.833 | 1002.13
293.15 K, 80104 kPa, m1 = 3.368 | 1029.17
293.15 K, 89245 kPa, m1 = 0.9499 | 903.13
293.15 K, 89926 kPa, m1 = 0.5972 | 882.72
293.15 K, 89954 kPa, m1 = 0.2335 | 860.88
293.15 K, 89958 kPa, m1 = 2.833 | 1006.83
293.15 K, 89963 kPa, m1 = 1.462 | 932.84
293.15 K, 89989 kPa, m1 = 3.368 | 1033.84
293.15 K, 99824 kPa, m1 = 1.462 | 937.16
293.15 K, 99895 kPa, m1 = 3.368 | 1038.46
293.15 K, 99965 kPa, m1 = 0.9499 | 907.85
293.15 K, 99965 kPa, m1 = 2.833 | 1011.42
293.15 K, 99986 kPa, m1 = 0.2335 | 865.27
293.16 K, 1250 kPa, m1 = 3.368 | 983.6
293.16 K, 19905 kPa, m1 = 0.5972 | 842.47
293.16 K, 29938 kPa, m1 = 2.833 | 975.41
293.16 K, 39654 kPa, m1 = 3.368 | 1008.34
293.16 K, 69784 kPa, m1 = 0.2335 | 850.96
293.16 K, 99971 kPa, m1 = 0.5972 | 887.12
293.17 K, 1430 kPa, m1 = 2.272 | 926.33
293.17 K, 1504 kPa, m1 = 0.5972 | 829.09
293.17 K, 4902 kPa, m1 = 2.272 | 928.89
293.17 K, 4938 kPa, m1 = 0.5972 | 831.68
293.17 K, 10030 kPa, m1 = 2.272 | 932.58
293.17 K, 19789 kPa, m1 = 2.272 | 939.24
293.17 K, 29946 kPa, m1 = 2.272 | 945.75
293.17 K, 40161 kPa, m1 = 2.272 | 951.9
293.17 K, 49963 kPa, m1 = 2.272 | 957.45
293.17 K, 89964 kPa, m1 = 2.272 | 977.54
293.17 K, 99958 kPa, m1 = 2.272 | 982.14
293.18 K, 60025 kPa, m1 = 2.272 | 962.8
293.18 K, 69979 kPa, m1 = 2.272 | 967.88
293.19 K, 79838 kPa, m1 = 2.272 | 972.67
298.09 K, 1141 kPa, m1 = 0.5972 | 824.73
298.1 K, 99589 kPa, m1 = 2.272 | 978.52
298.11 K, 60144 kPa, m1 = 1.462 | 914.77
298.12 K, 39801 kPa, m1 = 1.462 | 902.81
298.12 K, 39933 kPa, m1 = 2.272 | 947.93
298.12 K, 49922 kPa, m1 = 1.462 | 908.93
298.12 K, 49993 kPa, m1 = 2.272 | 953.69
298.12 K, 60039 kPa, m1 = 2.272 | 959.15
298.12 K, 99737 kPa, m1 = 3.368 | 1034.98
298.13 K, 5308 kPa, m1 = 1.462 | 879.29
298.13 K, 59998 kPa, m1 = 0.5972 | 864.41
298.13 K, 69983 kPa, m1 = 2.272 | 964.25
298.13 K, 80661 kPa, m1 = 3.368 | 1025.85
298.13 K, 89925 kPa, m1 = 2.272 | 973.93
298.13 K, 89985 kPa, m1 = 3.368 | 1030.35
298.14 K, 5004 kPa, m1 = 2.833 | 954.84
298.14 K, 20004 kPa, m1 = 0.2335 | 816.39
298.14 K, 30021 kPa, m1 = 2.833 | 971.59
298.14 K, 70023 kPa, m1 = 2.833 | 993.85
298.14 K, 79924 kPa, m1 = 0.2335 | 853.09
298.15 K, 1023 kPa, m1 = 2.833 | 951.93
298.15 K, 1045 kPa, m1 = 0.9499 | 845.75
298.15 K, 1204 kPa, m1 = 0.2335 | 801.78
298.15 K, 5002 kPa, m1 = 0.2335 | 805.08
298.15 K, 5004 kPa, m1 = 0.9499 | 848.93
298.15 K, 5221 kPa, m1 = 0.5972 | 827.89
298.15 K, 10024 kPa, m1 = 0.9499 | 852.82
298.15 K, 10064 kPa, m1 = 0.2335 | 808.99
298.15 K, 19935 kPa, m1 = 2.833 | 965.15
298.15 K, 19956 kPa, m1 = 0.9499 | 860.13
298.15 K, 29124 kPa, m1 = 0.2335 | 822.86
298.15 K, 29945 kPa, m1 = 0.9499 | 866.97
298.15 K, 29950 kPa, m1 = 2.272 | 941.76
298.15 K, 29993 kPa, m1 = 0.5972 | 845.75
298.15 K, 29993 kPa, m1 = 1.462 | 896.53
298.15 K, 39784 kPa, m1 = 0.9499 | 873.28
298.15 K, 39830 kPa, m1 = 0.5972 | 852.23
298.15 K, 39845 kPa, m1 = 2.833 | 977.51
298.15 K, 49956 kPa, m1 = 0.2335 | 836.44
298.15 K, 49963 kPa, m1 = 0.5972 | 858.53
298.15 K, 50012 kPa, m1 = 0.9499 | 879.42
298.15 K, 59968 kPa, m1 = 2.833 | 988.68
